According to patent US20090325923A1, “NEW METHOD FOR THE TREATMENT OF INFLAMMATORY DISEASES” (TOPOTARGET SWITZERLAND SA, priority 2006, published 2009):

Tests used:
[1] = test system: collagen-induced arthritis; test: Collagen-induced arthritis (CIA) mouse model; assay type: in vivo
[2] = Toxicity and tolerability in treated CIA mice (weight, histopathology, ALT, hematology); assay type: in vivo, mouse
Description: Test mice (n=20) were twice daily treated ip with 10 mg/kg of FK866 from the first day onward of appearance of clinical arthritis (clinical score>1) during 14 days. Placebo mice (n=20) received vehicle only. Groups of animals were compared with respect to variation of their clinical scoring, and of their weight (d) by statistical analysis using the two-way ANOVA. A semi-quantitative histological evaluation was performed on the knee sections using a 4 points (0-3) scoring system to evaluate inflammatory infiltrate and synovial hyperplasia. (c) Circulating SAA levels: Sera from placebo- and FK866-treated CIA mice at day 14 (n=8 and n=7, respectively) were prepared and analyzed by SAA ELISA according to the manufacturer's instructions.

[3] = test system: human monocyte-derived dendritic cells; test: LPS-stimulated cytokine secretion by ELISA in dendritic cells; assay type: cell-based
Description: (§1) Human monocytic cell line THP-1, human peripheral blood mononuclear cells (PBMC), human monocyte-derived dendritic cells, or mouse peritoneal macrophages were isolated and cultured overnight with increasing doses of FK866, and then stimulated with LPS for 6 h. The culture supernatants were tested for TNF and IL-6 content by ELISA
Human dendritic cells (mean and SD from 5 different donors) were incubated with 20 nM FK866 before stimulation with LPS or LPS+IFNγ. Pro-inflammatory cytokine levels in the supernatant were measured by ELISA after 16 h of culture.
(§2) This example describes the inhibition of pro-inflammatory cytokines production by the competitive small molecular weight compound inhibitor of NMPRT, ((E)-N-[4-(1-benzoylpiperidin-4-yl)butyl]-3-(pyridin-3-yl)acrylamide, designated FK866). Human monocytic cell line THP-1, human peripheral blood mononuclear cells (PBMC), human monocyte-derived dendritic cells, or mouse peritoneal macrophages were isolated and cultured overnight with increasing doses of FK866, and then stimulated with LPS for 6 h. The culture supernatants were tested for TNF and IL-6 content by ELISA.
This example describes the inhibition of other pro-inflammatory cytokine production, in addition to TNFα, IL-1β and IL-6, by FK866. Human dendritic cells from 5 different donors were cultured with FK866 before stimulation with LPS or LPS+IFNγ. The culture supernatants were tested for TNFα, IL-12 (p40 and p70), and IL-23 content by ELISA.

RAW264.7 cell line = test: TNFα mRNA levels by RT-PCR in RAW264.7 cells; assay type: cell-based, mouse; conditions: RAW 264.7, LPS in the presence of FK866, RT-PCR
Description: The murine RAW264.7 cell line was stimulated with LPS in the presence of FK866. TNF protein concentrations were determined by ELISA (above panel) while mRNA levels were determined by RT-PCR (below panel).
This example illustrates that FK866 inhibits TNFα secretion at a posttranscriptional level. The murine RAW 264.7 cell line was incubated in the presence of graded doses of FK866, stimulated with microbial products, and levels of TNFα released in the supernatant evaluated by ELISA.

[4] = test system: mouse peritoneal macrophages; test: LPS-stimulated TNF and IL-6 secretion by ELISA in peritoneal macrophages; assay type: cell-based; conditions: overnight increasing doses of FK866, LPS 6 h
Description: as §1, §2

[5] = test system: human peripheral blood mononuclear cells (PBMC); test: LPS-stimulated TNF and IL-6 secretion by ELISA in PBMC; assay type: cell-based; conditions: overnight increasing doses of FK866, LPS 6 h
Description: as §1, §2

Human PBMC = test: MTT cell viability assay in PBMC; assay type: cell-based; conditions: overnight increasing doses of FK866, LPS 6 h
Description: (A) Human PBMC were isolated and cultured overnight with increasing doses of FK866, and then stimulated with LPS for 6 h. At the end of the culture, cell viability was assessed using the MTT (3-(4,5-Dimethylthiazol-2-yl)-2,5-diphenyltetrazolium bromide) assay.
This example illustrates that the inhibition of proinflammatory cytokine secretion induced by lowering intracellular NAD levels is not due to apoptosis induction. Human PBMC were isolated and cultured overnight with increasing doses of FK866, and then stimulated with LPS for 6 h. At the end of the culture, cell viability was assessed using the MTT (3-(4,5-Dimethylthiazol-2-yl)-2,5-diphenyltetrazolium bromide) assay.

[6] = test system: Peritoneal exudates cells (PEC); test: Intracellular NAD in thioglycollate-elicited peritoneal exudate cells in vivo; design: species or system mouse
Description: Mice were treated with thioglycollate to elicit PEC, and then received 10 mg/kg FK866 by ip injection. PEC were obtained by lavage after different time points and intracellular NAD was determined. Data are mean±sem of 3 mice per group.
(§3) Mice were treated with thioglycollate to elicit PEC, and then received 10 mg/kg FK866 or placebo by ip injection 7 h before ip challenge with LPS. Mean serum TNFα at 90 min+sem of 3 mice per group is shown. PEC were obtained by lavage and intracellular NAD was determined. Data are mean±sem of 3 mice per group.
This example illustrates that FK866 reduces intracellular NAD level in inflammatory cells in vivo. Naïve mice were treated ip with thioglycollate to elicit inflammatory cells, and then FK866 was administered ip at 10 mg/kg. Peritoneal exudates cells (PEC) were obtained by lavage at different time points after treatment, and intracellular NAD levels were determined using an enzymatic assay.
(§4) This example illustrates that NAMPT inhibition reduces circulating TNFα during endotoxemia and correlates with diminished intracellular NAD in inflammatory cells. Naïve mice were treated ip with thioglycollate to elicit inflammatory cells, and then were treated ip with placebo or 10 mg/kg FK866 7 h before an intraperitoneal injection of LPS. Mice were bled 90 min later for evaluation of serum TNFα levels.

TNFα = test: Serum TNFα after LPS challenge (endotoxemia); assay type: in vivo, mouse; conditions: 10 mg/kg ip 7 h before ip LPS, bled 90 min later, vs placebo
Description: as §3, §4

[7] = 10 mg/kg ip twice daily, 14 days, 0-3 histological score, vs placebo
[8] = CIA mice, end of the experiment
[9] = human dendritic cells from 5 donors, 20 nM FK866, LPS or LPS+IFNγ, 16 h

O=C(/C=C/c1cccnc1)NCCCCC1CCN(C(=O)c2ccccc2)CC1 [FK866, (E)-N-[4-(1-benzoylpiperidin-4-yl)butyl]-3-(pyridine-3-yl)-acrylamide]
inflammatory infiltrate in knee joint sections [1, 7]: statistically significant decrease
synovial hyperplasia in knee joint sections [1, 7]: statistically significant decrease
histology of knees and paws ([1]; 10 mg/kg ip twice daily, 14 days, vs placebo): much less inflammation
paw inflammation ([1]; 10 mg/kg ip twice daily, after 2 weeks of treatment, vs placebo): minimal signs of inflammation
effect on established CIA (dose-response) ([1]; 2, 5 or 10 mg/kg ip twice daily for 15 days): marked protective dose-dependent effect
IL-1β in paw tissue extracts [1, 8]: significantly reduced
IL-6 in paw tissue extracts [1, 8]: significantly reduced
IL-10 secretion in paw tissue extracts [1, 8]: remained unchanged
MCP-1 in paw tissue extracts [1, 8]: decreased
symptoms of arthritis (clinical score) ([1]; DBA/1 mice, 10 mg/kg ip twice daily for 15 days from clinical score ≧1): ameliorates the symptoms of arthritis
severity of arthritis in CIA mice ([1]; FK866 10 mg/kg ip twice daily or etanercept 15 mg/kg every three days, over 15 days): activity similar to etanercept
time until beneficial effect apparent after commencement of treatment ([1]; established CIA): ≤ 10 days
dose of maximal therapeutic effect on CIA ([1]; ip twice daily for 15 days): 10 mg/kg
Serum amyloid A protein (SAA) levels ([1]; sera of CIA mice at day 14, ELISA, vs placebo): decreased
tolerability ([2]; CIA mice, 10 mg/kg ip twice daily): well tolerated
signs of toxicity ([2]; CIA mice, 10 mg/kg ip twice daily, 14 days): no signs of toxicity
% LYMPHO, mean ([2]; hematology of treated CIA mice): 60%
% MONO, mean ([2]; hematology of treated CIA mice): 10.4%
% NEUTRO, mean ([2]; hematology of treated CIA mice): 29.7%
HCT, mean ([2]; hematology of treated CIA mice): 52.8%
HGB, mean ([2]; hematology of treated CIA mice): 14.1 g/dL
PLT, mean ([2]; hematology of treated CIA mice): 1688 10^3/mm^3
RBC, mean ([2]; hematology of treated CIA mice): 9.4 10^3/mm^3
WBC, mean ([2]; hematology of treated CIA mice): 11.5 10^6/mm^3
weight of the mice ([2]; placebo- vs FK866-treated groups): comparable
premature death ([2]; treated group): no premature death
hematological examination ([2]; treated vs control mice): similarity between the treated and control mice
histopathology of liver, spleen, lung, gut, kidney, inguinal lymph nodes and brain ([2]; vs control animals): no different from control animals
IL-12 (p40 and p70) production [3, 9]: inhibited
IL-23 production [3, 9]: inhibited
TNFα production [3, 9]: inhibited
cytokine secretion (TNF and IL-6) ([3]; human monocyte-derived dendritic cells, overnight increasing doses of FK866, LPS 6 h): inhibited cytokine secretion in a dose-dependent fashion
TNFα mRNA levels (RAW264.7 cell line): did not significantly affect
cytokine secretion (TNF and IL-6) [4]: inhibited cytokine secretion in a dose-dependent fashion
cytokine secretion (TNF and IL-6) [5]: inhibited cytokine secretion in a dose-dependent fashion
cell viability (MTT) (Human PBMC): not affected
time of NAD nadir after injection ([6]; 10 mg/kg ip): 9 h
time of NAD recovery after injection ([6]; 10 mg/kg ip): around 14 h
intracellular NAD in PECs ([6]; 10 mg/kg ip 7 h before ip LPS, same mice, vs placebo): significant decrease
intracellular NAD in PEC (macrophages) in vivo ([6]; 10 mg/kg ip, lavage at different time points): significant time-dependent NAD depletion
circulating (serum) TNFα levels (TNFα): significant decrease
